# Measurements reported in patent EP4389121A1, “ANTIVIRAL AMINO ACID DERIVATIVES” (Consejo Superior De Investigaciones Científicas (CSIC), priority 2022, dated 2024).
# Like-named read-outs stand apart in the source and are kept apart here.
# Legend:
# [1] = system: SARS-CoV-2 in Vero-E6 cells; experiment: microbe, parasite or virus in culture; type: cell-based; settings: for EC50: read-out: EC50 approx.
# SARS-CoV-2 [2] = experiment: Intracellular viral antigen (N protein) accumulation by immunofluorescence, A549-ACE2 cells; type: cell-based
# in vitro [3] = settings: human
# Description: Cytotoxicity profile of the selected compounds was evaluated by MTT assays in parallel wells of Huh-7 cells. Uninfected cells were incubated with a range of compound concentrations (from 50 to 0.78 µM) for forty-eight hours, time at which the MTT substrate [3-(4,5-dimethylthiazol-2-yl)-2,5-diphenyltetrazolium bromide] was added and the formation of formazan precipitates was evaluated two hours later, using a colorimetric readout. Vehicle-treated (DMSO) cells were used as reference (100 %).
# SARS-CoV-2 [4] = experiment: Intracellular viral antigen (N protein) accumulation by immunofluorescence, Vero-E6 cells; type: cell-based
# [5] = system: vesicular stomatitis virus (VSV-GFP); experiment: microbe, parasite or virus in culture; type: cell-based; settings: A549-ACE2, 16 h
# [6] = system: West Nile virus (WNV-GFP); experiment: microbe, parasite or virus in culture; type: cell-based; settings: Huh-7, 48 h
# in vitro [7] = settings: African green monkey
# [8] = Cytotoxicity by MTT colorimetric assay, Vero-E6; type: cell-based; settings: African green monkey, uninfected Vero-E6 cells
# in vitro [9] = settings: human; remark: listed apart in the source
# Description: To evaluate the cytotoxicity profile of the selected compounds MTT assays were performed in Vero-E6 and A549-ACE2 cells. Uninfected cells were incubated with a range of compound concentrations (from 50 to 0.78 µM) for forty-eight hours, time at which the MTT substrate [3-(4,5-dimethylthiazol-2-yl)-2,5-diphenyltetrazolium bromide] was added and the formation of formazan precipitates was evaluated two hours later, using a colorimetric readout. Vehicle-treated (DMSO) cells were used as reference (100 %).
# in vitro [10] = settings: human; remark: listed apart in the source
# in vitro [11] = settings: human; remark: listed apart in the source
# HCoV 229E (229E-GFP) = experiment: organism not typed; settings: Huh-7, 48 h
# Description: (§1) To study the antiviral effect of selected compounds of the family against a distinct human coronavirus, Huh-7 cell monolayers were infected with a GFP-expressing recombinant HCoV 229E (229E-GFP) at MOI 0.01 in the presence of a wide range of compound concentrations (0.4 to 50 µM). Forty-eight hours later cells were fixed by 10 minutes incubation with a 4 % formaldehyde-PBS solution. After extensive washes with PBS, infection efficiency was evaluated by the detection of GFP accumulation by fluorescence microscopy. Nuclei were stained using DAPI (4',6-diamidino-2-phenylindole) dye. Automated imaging was carried out in a SparkCyto (Tecan) multimode plate reader. The total intensity signal present in vehicle-treated (DMSO) conditions was used as reference (100 %).
# in vitro [12] = settings: human; remark: listed apart in the source
# Description: as §1
# [13] = Severe acute respiratory syndrome coronavirus 2, Vero C1008, approximate, estimated from PCmax and PCmin, Vero-E6, MOI 0.001, 72 h
# [14] = Severe acute respiratory syndrome coronavirus 2, Vero C1008, minimum nominal concentration protecting the Vero-E6 monolayer from virus-induced cell death, MOI 0.001, 72 h, read-out: PCmin
# [15] = Severe acute respiratory syndrome coronavirus 2, Vero C1008, real concentration, Vero-E6, MOI 0.001, 72 h, read-out: PC min real
# [16] = Severe acute respiratory syndrome coronavirus 2, Vero C1008, 72 h
# [17] = Severe acute respiratory syndrome coronavirus 2, Vero C1008, 72 h, read-out: PC min real
# [18] = Severe acute respiratory syndrome coronavirus 2, Vero C1008, 72 h, read-out: PCmin
# [19] = Severe acute respiratory syndrome coronavirus 2, A549-ACE2, MOI 0.005, 48 h, N protein signal, read-out: EC50
# [20] = Severe acute respiratory syndrome coronavirus 2, A549-ACE2, MOI 0.005, 48 h, N protein signal, read-out: EC90
# [21] = Severe acute respiratory syndrome coronavirus 2, Vero C1008, Vero-E6, MOI 0.01, 24 h, N protein signal, read-out: EC50
# [22] = Severe acute respiratory syndrome coronavirus 2, Vero C1008, Vero-E6, MOI 0.01, 24 h, N protein signal, read-out: EC90
# [23] = Severe acute respiratory syndrome coronavirus 2, A549-ACE2, 48 h
# [24] = Severe acute respiratory syndrome coronavirus 2, Vero C1008, 24 h
SMILES,"EC50 [1, 13] [µM]","minimal effective concentration [1, 14] [µM]","minimal effective concentration [1, 15] [µM]","EC50 [1, 16] [µM]","minimal effective concentration [1, 17] [µM]","minimal effective concentration [1, 18] [µM]",also measured
"CCOC(=O)[C@H](CCC(=O)NCCC1CCN(Cc2ccccc2)CC1)NC(=O)c1cc2ccccc2oc1=O [NF1358, Ethyl N^5-(2-(1-benzylpiperidin-4-yl)ethyl)-N^2-(2-oxo-2H-chromene-3-carbonyl)-L-glutaminate]",19.1,25,25.4,,,,
"CCCCCCOC(=O)[C@H](CCC(=O)NCCC1CCN(Cc2ccccc2)CC1)NC(=O)c1cc(C)on1 [NF1328, n-Hexyl N^5-(2-(1-benzylpiperidin-4-yl)ethyl)-N^2-(5-methylisoxazole-3-carbonyl)-L-glutaminate]",4.9,6.25,6.5,,,,
CCCCCCOC(=O)[C@H](CCC(=O)NCCC1CCN(Cc2ccccc2)CC1)NC(=O)OC(C)(C)C [NF1346],,,,9.3,12.4,12.5,
"CCCCCCOC(=O)[C@H](CCC(=O)NCCC1CCN(Cc2ccccc2)CC1)NC(=O)c1cc(=O)c2cc(OC)ccc2o1 [NF1337, n-Hexyl N^5-(2-(1-benzylpiperidin-4-yl)ethyl)-N^2-(6-methoxy-4-oxo-4H-chromene-2-carbonyl)-L-glutaminate]",7.7,12.5,10.3,,,,
CCCCCCOC(=O)[C@H](CCC(=O)NCCC1CCN(Cc2ccccc2)CC1)NC(=O)c1ccccc1 [NF0818],,,,9.7,,,PC min real ([1]; 72 h): 13.0 µM; PCmax real ([1]; 72 h): 51.9 µM
"O=C(CC[C@H](NC(=O)OCc1ccccc1)C(=O)OCCBr)NCCC1CCN(Cc2ccccc2)CC1 [NF1363, 2-Bromoethyl N^2-((benzyloxy)carbonyl)-N^5-(2-(1-benzylpiperidin-4-yl)ethyl)-L-glutaminate]",5.4,6.25,7.3,,,,
CCCCCCOC(=O)[C@H](CCC(=O)NCCC1CCN(Cc2ccccc2)CC1)NC(=O)c1cc(Br)cs1 [NF1351],,,,4.3,5.7,6.25,
CCOC(=O)[C@H](CCC(=O)NCCC1CCN(Cc2ccccc2)CC1)NC(=O)c1ccccc1 [NF1316],19.4,25,25.9,,,,
"CCCCCCOC(=O)[C@H](CCC(=O)NCCC1CCN(Cc2ccccc2)CC1)NC(=O)c1cc(=O)c2c(OC)cc(OC)cc2o1 [NF1340, n-Hexyl N^5-(2-(1-benzylpiperidin-4-yl)ethyl)-N^2-(5,7-dimethoxy-4-oxo-4H-chromene-2-carbonyl)-L-glutaminate]",41.8,50,55.7,,,,
CCCCCCOC(=O)[C@H](CCC(=O)NCCC1CCN(Cc2ccccc2)CC1)NC(=O)Cc1cc2ccc(Cl)cc2s1 [NF1353],,,,4.5,6,6.25,
"CCCCCCOC(=O)[C@H](CCC(=O)NCCC1CCN(Cc2ccccc2)CC1)NC(=O)c1coc(C)n1 [NF1331, n-Hexyl N^5-(2-(1-benzylpiperidin-4-yl)ethyl)-N^2-(2-methyloxazole-4-carbonyl)-L-glutaminate]",2.4,3.12,3.3,,,,EC50 (SARS-CoV-2 [2]; [19]): 1.8 µM; EC90 (SARS-CoV-2 [2]; [20]): 5 µM; CC50 (in vitro [3]): > 50 µM; CC50 at 48 h (in vitro [3]): > 50 µM; EC50 (SARS-CoV-2 [4]; [21]): 1.5 µM; EC90 (SARS-CoV-2 [4]; [22]): 11 µM; EC50 [5]: 38 µM; EC90 [5]: > 50 µM; EC50 [6]: > 50 µM; EC90 [6]: > 50 µM; CC50 (in vitro [7]): > 50 µM; CC50 at 48 h [8]: > 50 µM; CC50 (in vitro [9]): > 50 µM; CC50 at 48 h (in vitro [9]): > 50 µM; CC50 at 48 h (in vitro [10]): > 50 µM; CC50 (in vitro [11]): > 50 µM; EC50 (HCoV 229E (229E-GFP)): 2 µM; EC90 (HCoV 229E (229E-GFP)): 20 µM; CC50 at 48 h (in vitro [12]): 43 µM
CCCCCCOC(=O)[C@H](CCC(=O)NCCC1CCN(Cc2ccccc2)CC1)NC(=O)c1cc2ccccc2s1 [NF1352],,,,9.2,12.3,12.5,
CCCCCCOC(=O)[C@H](CCC(=O)NCCC1CCN(Cc2ccccc2)CC1)NC(=O)c1cccs1 [NF1350],,,,6.9,9.2,6.25,
"CCOC(=O)[C@H](CCC(=O)NCCC1CCN(Cc2ccccc2)CC1)NC(=O)c1cc(=O)c2cc(OC)ccc2o1 [NF1336, Ethyl N^5-(2-(1-benzylpiperidin-4-yl)ethyl)-N^2-(6-methoxy-4-oxo-4H-chromene-2-carbonyl)-L-glutaminate]",18.4,25,24.5,,,,
"CCOC(=O)[C@H](CCC(=O)NCCC1CCN(Cc2ccccc2)CC1)NC(=O)c1ccc2ccccc2n1 [NF1360, Ethyl N^5-(2-(1-benzylpiperidin-4-yl)ethyl)-N^2-(quinoline-2-carbonyl)-L-glutaminate]",24.3,50,32.3,,,,
CCOC(=O)CC[C@H](NC(=O)OCc1ccccc1)C(=O)NCCC1CCN(Cc2ccccc2)CC1 [NF1313],19,25,25.3,,,,
CCCCCCOC(=O)[C@H](CCC(=O)NCCC1CCN(Cc2ccccc2)CC1)NC(=O)c1cc2cccnc2s1 [NF1354],,,,20.9,27.8,25,
"CCCCCCOC(=O)[C@H](CCC(=O)NCCC1CCN(Cc2ccccc2)CC1)NC(=O)Cc1cc(C)no1 [NF1334, n-Hexyl N^5-(2-(1-benzylpiperidin-4-yl)ethyl)-N^2-(2-(3-methylisoxazol-5-yl)acetyl)-L-glutaminate]",10.5,25,14,,,,
CCCCCCOC(=O)[C@H](CCC(=O)NCCC1CCN(Cc2ccccc2)CC1)NC(=O)OCc1ccccc1 [NF1349],,,,4.7,6.3,6.25,EC50 (SARS-CoV-2 [2]; [23]): 3 µM; EC90 (SARS-CoV-2 [2]; [23]): 5.5 µM; EC50 (SARS-CoV-2 [4]; [24]): 3.1 µM; EC90 (SARS-CoV-2 [4]; [24]): 7 µM; EC50 [5]: 36 µM; EC90 [5]: 47 µM; EC50 [6]: 36 µM; EC90 [6]: > 50 µM; CC50 (in vitro [7]): > 50 µM; CC50 at 48 h [8]: > 50 µM; EC50 (HCoV 229E (229E-GFP)): 2 µM; EC90 (HCoV 229E (229E-GFP)): 10 µM
CCOC(=O)[C@H](CCC(=O)NCCC1CCN(Cc2ccccc2)CC1)NC(=O)c1ccc2cc(OC)ccc2c1 [NF1322],9.4,12.5,12.5,,,,
CCCCCCOC(=O)[C@H](CCC(=O)NCCC1CCN(Cc2ccccc2)CC1)NC(=O)c1c[nH]c2ccccc12 [NF1325],19.6,25,26.1,,,,
"CCOC(=O)[C@H](CCC(=O)NCCC1CCN(Cc2ccccc2)CC1)NC(=O)OCc1ccccc1 [NF1365, Ethyl N^2-((benzyloxy)carbonyl)-N^5-(2-(1-benzylpiperidin-4-yl)ethyl)-L-glutaminate]",2.4,3.12,3.2,,,,EC50 (SARS-CoV-2 [2]; [19]): 1 to 2 µM; EC90 (SARS-CoV-2 [2]; [20]): 2.5 to 5 µM; EC50 (SARS-CoV-2 [4]; [21]): 1.8 µM; EC90 (SARS-CoV-2 [4]; [22]): 6 µM; EC50 [5]: 36 µM; EC90 [5]: 47 µM; EC50 [6]: 27 µM; EC90 [6]: 45 µM; CC50 (in vitro [7]): 50 µM; CC50 at 48 h [8]: > 50 µM; EC50 (HCoV 229E (229E-GFP)): 1 µM; EC90 (HCoV 229E (229E-GFP)): 8 µM
